From patent publication US7582681B2, “Synergistic mixtures of 1,2-alkane diols” (Symrise GmbH & Co. KG, priority 2002, dated 2009)

Test system: Aspergillus niger ATCC 16404
Experiment: Test for adequate preservation (European Pharmacopea), 1,2-diols and 1,2-diol mixtures in O/W emulsion
Assay type: cell-based
Settings: for germ count A. niger: 3% diol(s) in O/W emulsion; for reduction in the number of colony forming units (CFU) to the 0 value: Aspergillus niger, dosage of 3%, 28 days
Method: A test for adequate preservation was carried out in accordance with the European Pharmacopea. The test thus consists of the contamination of the formulation, if possible in its final ratio, with a prescribed inoculum of suitable microorganisms, storage of the inoculated formulation at a specific temperature, taking of samples from the vessel at specific intervals and determination of the number of microorganisms in the samples taken in this way. The preserving properties are adequate if, under the conditions of the test, there is a distinct reduction or optionally no increase in the germ count in the inoculated formulations after the prescribed times at the prescribed temperatures. Experimental details of the test procedure are described in the European Pharmacopea (ISBN 3-7692-2768-9; 2001 supplement to the 3rd Edition, page 421-422, chapter 5.1.3). The initial germ count (CFU/g; “0” value) was in the range of 240,000 to 300,000 in the various test series. For the tests for adequate preservation, (a) potentially synergistically active mixtures taken into account and (b), for comparison purposes, the corresponding unmixed 1,2-diols were incorporated in O/W emulsions. […] The variation in the total concentration of 1,2-diols or 1,2-diol mixtures in the O/W emulsions was compensated for by increasing or reducing the water content, so that otherwise identical formulations always comprised 100 parts by weight in total. […] The Kull equation enables the pure substances and the active compound mixtures prepared therefrom to be compared in respect of their antimicrobial activity. With this equation the so-called synergy index (SI), which is a measure for a synergistic activity, but also for a possible antagonistic activity, of a mixture having an antimicrobial action, is determined. A synergistic effect is evident if the SI value determined is less than 1. On the other hand, if an SI of precisely 1 is calculated, there is a pure additive effect of two substances having an antimicrobial action. In the case of an SI value greater than 1, on the other hand, there is a (frequently undesired) antagonistic effect.

SMILES	germ count A. niger (0′-count (initial germ count))	germ count A. niger (24 h)	germ count A. niger (48 h)	germ count A. niger (4 d)	germ count A. niger (7 d)	germ count A. niger (14 d)	germ count A. niger (14 d, listed as 1,2-hexanediol) [CFU/ml]	germ count A. niger (28 d) [CFU/ml]	reduction in the number of colony forming units (CFU) to the 0 value	germ count A. niger (14 d, listed as 1,2-octanediol) [CFU/ml]
CCCCC(O)CO (stereo not drawn) [HE3, 1,2-hexanediol]	260,000 CFU/ml	120,000 CFU/ml	120,000 CFU/ml	120,000 CFU/ml	80,000 CFU/ml	28,000 CFU/ml	28000	800	did not enable a reduction in the number of colony forming units (CFU) to the desired 0 value	
CCCCCCC(O)CO (stereo not drawn) [OC3, 1,2-octanediol]	260,000 CFU/ml	55,000 CFU/ml	6,000 CFU/ml	6,000 CFU/ml	1,100 CFU/ml	1,000 CFU/ml		100	did not enable a reduction in the number of colony forming units (CFU) to the desired 0 value	1000
